Columns and labels:
[1] = Stability of DPDFT in rat plasma QC samples (freeze/thaw, storage, autosampler); format: in vitro ADME; settings: 72 h at 4°C
[2] = Pharmacokinetic study in rats after single intravenous administration (HPLC-UV plasma determination, two-compartment model, 3p97 software); format: in vivo, Wistar albino rats; parameters: AUC / CL(s): unit not given here; settings: for A / B / CL(s) / K 10 (first order elimination from compartment 1) / K 12 (first order transfer from compartment 1 to compartment 2) / K 21 (first order transfer from compartment 2 to compartment 1) / V d / t 1/2a (distribution half-life) / t 1/2β (elimination half-life) / β: mean ± SD, n = 6
Experimental: Laboratory bred adult Wistar albino rats (200–250 g), which were supplied by the Animal Research Center at Shanxi Medical University (Taiyuan, Shanxi Province, China), were housed at 25 ± 2°C in a well-ventilated animal house under 12 : 12 h light dark cycle. The animals drank sterilized drinking water, and standard chow diet was supplied ad libitum to each cage. The animal experiments were performed in accordance with the ARVO Statement for the Use of Animals in Ophthalmic and Vision Research and were approved by the Animal Ethics Committee of Shanxi Medical University.
HPLC analysis was carried out using a Waters 2695 HPLC system (Waters Associates, Milford, MA) which consisted of a photodiode array detector, an autosampler, and a degasser. The apparatus was interfaced to a DELL PC compatible computer using Empower Pro software for data acquisition. The sensitivity was 0.2 AUFS. The autosampler was cooled to 10°C. The column was maintained at room temperature. Chromatographic separation of DPDFT and the I.S. was achieved on a Diamonsil C18 column (250 mm × 4.6 mm, 5 μm) from Dikma Technologies (Beijing, China) protected by a SHIMADZU LC guard column at 25°C. The mobile phase for HPLC analysis consisted of phosphoric acid in water (solvent A)/methanol (solvent B) (30 : 70, V/V, pH 3.0) with a flow rate of 0.8 mL·min^−1. A sample volume of 20 μL was injected. Prior to use, the mobile phase was filtered through a 0.45 μm hydrophilic membrane filter. The photodiode array detector was set at a wavelength of 228 nm at room temperature. Under the chromatographic condition mentioned above, DPDFT and the I.S. acetanilide could be separated completely in the chromatograms (R > 1.5), and there was no endogenous interference with the chromatographic peak of DPDFT and the I.S.acetanilide. Besides, the retention time of acetanilide (t R = 15.67 min) was very suitable as the I.S. compared to that of DPDFT (t R = 8.34 min).
Blood samples collected from rat blood plasma were immediately transferred to 1.5 mL heparinized microcentrifuge tubes from fossa orbitalis of rats, and then processed for plasma by centrifugation. The supernatant plasma (0.2 mL) was then vortex-mixed with methanol (0.4 mL) containing acetanilide (0.2 mL, 50.0 μg·mL^−1) as internal standard (I.S.) for 30 s. After vortex-mixing, the mixture was centrifuged at 13000 rpm for 10 min 4°C to separate precipitated proteins. The supernatant solution of methanol layer was filtered through a 0.45 μm membrane filter. Twenty microliters of filtrate were injected into the chromatography. The same sample processing was also applied to the recovery and to the precision study in plasma. All harvested samples stored at −4°C were brought to room temperature before use and analyzed within one week.
To evaluate the suitability of the assay for pharmacokinetic studies, 7.5, 15, and 30 mg·kg^−1 of DPDFT were intravenously administered to rats (half males and half females, resp.). Six animals were used in each dosage by direct injection into a lateral tail vein, with a duration of infusion less than 1 min. Heparinized blood samples (0.5 mL) were collected at 0, 1, 3, 5, 10, 30, 60, and 120 min after injection. […]. After each sampling, the removed volume of blood was supplemented with an equal volume of sodium chloride. The blood samples were immediately centrifuged and the resulting plasma was prepared according to the procedure given for the calibrators. Pharmacokinetic calculations were performed using the observed data. […] All values obtained were expressed in mean ± standard deviation.

[3] = Stability of stock solution stored at 4°C; format: physicochemical; settings: stock solution in methanol
Experimental: A stock solution of DPDFT was prepared in methanol at the concentration of 100 mg·mL^−1 and was further diluted in HPLC mobile phase to make working standards. The I.S. stock solution was prepared and diluted to 50.0 μg·mL^−1 working solution with HPLC mobile phase. All the stock solutions were maintained at 4°C until use.
Stability of DPDFT during storage and processing was checked using quality control samples. The DPDFT and I.S. stock solutions were stable for at least 2 months when stored at 4°C. The deviation of the mean test responses was within ±10% of appropriate controls in all stability tests of DPDFT in rat plasma. After three freeze-thaw cycles, the concentration changes of DPDFT were less than 7%. The analyte was stable in the matrices at 4, −20°C and room temperature for 72 h without significant degradation (<8%).

[4] = Stability of DPDFT in rat plasma QC samples (freeze/thaw, storage, autosampler); format: in vitro ADME
Experimental: Quality control (QC) samples were used to determine the accuracy and precision of method and were independently prepared at low (0.8 μg·mL^−1), medium (4 μg·mL^−1), and high (20 μg·mL^−1) concentrations. To evaluate the accuracy and precision, we used at least five QC samples of three different concentrations of DPDFT. The intraday and interday accuracies were expressed as the percentage difference between the measured concentration and the nominal concentration in rat plasma. The intraday precision and accuracy were calculated using replicate (n = 6) determinations for each concentration of the spiked plasma sample during a single analytical run. The interassay precision and accuracy were calculated using replicate (n = 6) determinations of each concentration made on three separate days. The variability of determination was expressed as the relative standard deviation (RSD) which should be ≤15%, covering the range of actual experimental concentrations.
The stability of DPDFT in rat plasma was assessed by analyzing replicates (n = 6) of QC samples at concentrations of 0.8, 4, 20 μg·mL^−1, respectively. The investigation covered the expected conditions during all of the sample storage and process periods, which included the stability data from freeze/thaw cycle and long-term stability tests. The concentrations obtained from stability studies were compared with the freshly prepared QC samples, and the percentage concentration deviation was calculated. In each freeze–thaw cycle, the samples were frozen and stored at −20°C for 10 days, then thawed at room temperature. The stability of the fresh plasma samples was tested after keeping the samples at […], −20°C and room temperature for 72 h. The stability of deproteinized samples at 10°C in the autosampler was evaluated up to 24 h.

[5] = rats, i.v., 15 mg·kg^−1 (middle)
[6] = rats, i.v., 7.5, 15, and 30 mg·kg^−1

Which results are given for O=C(N[O][Sn]([O]NC(=O)c1ccc(F)cc1F)([c]1ccccc1)[c]1ccccc1)c1ccc(F)cc1F [DPDFT, Di-phenyl-di-(2,4-difluobenzohydroxamato)tin(IV)]?
Accuracy = [(Cobs − Cnom)/Cnom] × 100 ([1]; nominal 4 μg·mL^−1): −7.50%; Observed concentration ± SD ([1]; nominal 20 μg·mL^−1, n = 6): 21.14 ± 1.27 µg/mL; DPDFT concentration in blood sample ([2]; collected at 3 min after administration of 15 mg·kg^−1, i.v.): 2.4 µg/mL; A ([2]; rats, i.v., 7.5 mg·kg^−1 (low)): 2.21 ± 0.03 min⁻¹; B ([2]; rats, i.v., 7.5 mg·kg^−1 (low)): 0.15 ± 0.04 mg/kg; CL(s) ([2]; rats, i.v., 7.5 mg·kg^−1 (low)): 0.66 ± 0.05; K 10 (first order elimination from compartment 1) ([2]; rats, i.v., 7.5 mg·kg^−1 (low)): 0.32 ± 0.05 min⁻¹; K 12 (first order transfer from compartment 1 to compartment 2) ([2]; rats, i.v., 7.5 mg·kg^−1 (low)): 0.26 ± 0.04 min⁻¹; K 21 (first order transfer from compartment 2 to compartment 1) ([2]; rats, i.v., 7.5 mg·kg^−1 (low)): 0.08 ± 0.004 min⁻¹; V d ([2]; rats, i.v., 7.5 mg·kg^−1 (low)): 2.13 ± 0.07 L/kg; t 1/2a (distribution half-life) ([2]; rats, i.v., 7.5 mg·kg^−1 (low)): 1.04 ± 0.01 min; t 1/2β (elimination half-life) ([2]; rats, i.v., 7.5 mg·kg^−1 (low)): 17.68 ± 2.6 min; β ([2]; rats, i.v., 7.5 mg·kg^−1 (low)): 0.04 ± 0.003 min⁻¹; A [2, 5]: 7.94 ± 3.12 min⁻¹; B [2, 5]: 0.92 ± 0.04 mg/kg; CL(s) [2, 5]: 0.27 ± 0.02; K 10 (first order elimination from compartment 1) [2, 5]: 0.24 ± 0.08 min⁻¹; K 12 (first order transfer from compartment 1 to compartment 2) [2, 5]: 0.38 ± 0.01 min⁻¹; K 21 (first order transfer from compartment 2 to compartment 1) [2, 5]: 0.11 ± 0.01 min⁻¹; V d [2, 5]: 1.13 ± 0.08 L/kg; t 1/2a (distribution half-life) [2, 5]: 1.01 ± 0.01 min; t 1/2β (elimination half-life) [2, 5]: 19.38 ± 3.6 min; β [2, 5]: 0.04 ± 0.003 min⁻¹; A ([2]; rats, i.v., 30 mg·kg^−1 (high)): 22.36 ± 8.12 min⁻¹; B ([2]; rats, i.v., 30 mg·kg^−1 (high)): 1.85 ± 0.44 mg/kg; K 10 (first order elimination from compartment 1) ([2]; rats, i.v., 30 mg·kg^−1 (high)): 0.30 ± 0.18 min⁻¹; K 12 (first order transfer from compartment 1 to compartment 2) ([2]; rats, i.v., 30 mg·kg^−1 (high)): 0.28 ± 0.11 min⁻¹; K 21 (first order transfer from compartment 2 to compartment 1) ([2]; rats, i.v., 30 mg·kg^−1 (high)): 0.09 ± 0.01 min⁻¹; V d ([2]; rats, i.v., 30 mg·kg^−1 (high)): 0.62 ± 0.08 L/kg; t 1/2a (distribution half-life) ([2]; rats, i.v., 30 mg·kg^−1 (high)): 1.12 ± 0.1 min; t 1/2β (elimination half-life) ([2]; rats, i.v., 30 mg·kg^−1 (high)): 16.81 ± 3.6 min; β ([2]; rats, i.v., 30 mg·kg^−1 (high)): 0.04 ± 0.003 min⁻¹; compartment model fitted to concentration-time data [2, 6]: two-compartment model; difference in pharmacokinetic parameters between male and female rats [2, 6]: no significant differences; dose linearity of pharmacokinetics ([2]; rats, i.v., from 7.5 to 30 mg/kg): nonlinear process; time stock solution was stable [3]: at least 2 months; deviation of the mean test responses from appropriate controls ([4]; all stability tests in rat plasma): ≤ 10%; run-time stability (concentration change) ([4]; deproteinized rat plasma, 10°C for up to 24 h): < 6%; Accuracy = [(Cobs − Cnom)/Cnom] × 100 ([4]; deproteinized rat plasma, autosampler 24 h at 10°C, nominal 0.8 μg·mL^−1): 3.75%; Observed concentration ± SD ([4]; deproteinized rat plasma, autosampler 24 h at 10°C, nominal 0.8 μg·mL^−1, n = 6): 0.83 ± 0.04 µg/mL; Accuracy = [(Cobs − Cnom)/Cnom] × 100 ([4]; deproteinized rat plasma, autosampler 24 h at 10°C, nominal 4 μg·mL^−1): −4.25%; Observed concentration ± SD ([4]; deproteinized rat plasma, autosampler 24 h at 10°C, nominal 4 μg·mL^−1, n = 6): 3.83 ± 0.18 µg/mL; Accuracy = [(Cobs − Cnom)/Cnom] × 100 ([4]; deproteinized rat plasma, autosampler 24 h at 10°C, nominal 20 μg·mL^−1): −4.05%; Observed concentration ± SD ([4]; deproteinized rat plasma, autosampler 24 h at 10°C, nominal 20 μg·mL^−1, n = 6): 19.19 ± 1.08 µg/mL; degradation in the matrices ([4]; rat plasma, 4, −20°C and room temperature for 72 h): < 8%; Accuracy = [(Cobs − Cnom)/Cnom] × 100 ([4]; rat plasma, 72 h at 4°C, nominal 0.8 μg·mL^−1): 8.75%; Observed concentration ± SD ([4]; rat plasma, 72 h at 4°C, nominal 0.8 μg·mL^−1, n = 6): 0.87 ± 0.04 µg/mL; Observed concentration ± SD ([4]; rat plasma, 72 h at 4°C, nominal 4 μg·mL^−1, n = 6): 3.70 ± 0.16 µg/mL; Accuracy = [(Cobs − Cnom)/Cnom] × 100 ([4]; rat plasma, 72 h at 4°C, nominal 20 μg·mL^−1): 5.70%; Accuracy = [(Cobs − Cnom)/Cnom] × 100 ([4]; rat plasma, 72 h at room temperature, nominal 0.8 μg·mL^−1): −2.50%; Observed concentration ± SD ([4]; rat plasma, 72 h at room temperature, nominal 0.8 μg·mL^−1, n = 6): 0.78 ± 0.05 µg/mL; Accuracy = [(Cobs − Cnom)/Cnom] × 100 ([4]; rat plasma, 72 h at room temperature, nominal 4 μg·mL^−1): −3.25%; Observed concentration ± SD ([4]; rat plasma, 72 h at room temperature, nominal 4 μg·mL^−1, n = 6): 3.87 ± 0.19 µg/mL; Observed concentration ± SD ([4]; rat plasma, 72 h at room temperature, nominal 20 μg·mL^−1, n = 6): 19.46 ± 1.19 µg/mL; Accuracy = [(Cobs − Cnom)/Cnom] × 100 ([4]; rat plasma, 72 h at −20°C, nominal 0.8 μg·mL^−1): −7.50%; Observed concentration ± SD ([4]; rat plasma, 72 h at −20°C, nominal 0.8 μg·mL^−1, n = 6): 0.74 ± 0.05 µg/mL; Accuracy = [(Cobs − Cnom)/Cnom] × 100 ([4]; rat plasma, 72 h at −20°C, nominal 4 μg·mL^−1): 5.50%; Observed concentration ± SD ([4]; rat plasma, 72 h at −20°C, nominal 4 μg·mL^−1, n = 6): 4.22 ± 0.12 µg/mL; Accuracy = [(Cobs − Cnom)/Cnom] × 100 ([4]; rat plasma, 72 h at −20°C, nominal 20 μg·mL^−1): −4.35%; Observed concentration ± SD ([4]; rat plasma, 72 h at −20°C, nominal 20 μg·mL^−1, n = 6): 19.13 ± 1.53 µg/mL; concentration changes after three freeze-thaw cycles ([4]; rat plasma, frozen at −20°C, thawed at room temperature): less than 7%; Accuracy = [(Cobs − Cnom)/Cnom] × 100 ([4]; rat plasma, three freeze and thaw cycles, nominal 0.8 μg·mL^−1): −5.00%; Observed concentration ± SD ([4]; rat plasma, three freeze and thaw cycles, nominal 0.8 μg·mL^−1, n = 6): 0.76 ± 0.05 µg/mL; Accuracy = [(Cobs − Cnom)/Cnom] × 100 ([4]; rat plasma, three freeze and thaw cycles, nominal 4 μg·mL^−1): −5.25%; Observed concentration ± SD ([4]; rat plasma, three freeze and thaw cycles, nominal 4 μg·mL^−1, n = 6): 3.79 ± 0.13 µg/mL; Accuracy = [(Cobs − Cnom)/Cnom] × 100 ([4]; rat plasma, three freeze and thaw cycles, nominal 20 μg·mL^−1): −5.15%; Observed concentration ± SD ([4]; rat plasma, three freeze and thaw cycles, nominal 20 μg·mL^−1, n = 6): 18.97 ± 1.17 µg/mL

Source: PMC3287010, “Pharmacokinetic Study of Di-Phenyl-Di-(2,4-Difluobenzohydroxamato)Tin(IV): Novel Metal-Based Complex with Promising Antitumor Potential” (Bioinorganic Chemistry and Applications, 2012)
